# From paper PMC9186373, “Design, synthesis, and biological evaluation of novel carbazole derivatives as potent DNMT1 inhibitors with reasonable PK properties” (Journal of Enzyme Inhibition and Medicinal Chemistry, 2022)
# Assays:
# human DNMT1 = experiment: ELISA EpiQuik DNA methyltransferase (DNMT) activity/inhibitor assay; type: biochemical; details: for Inh% at 50 μM: 50 μM compound; for Inh% at 50 μM / Inh% at 100 μM: 200 nM purified DNMT1, EpiQuik kit; for Inh% at 100 μM: 100 μM compound; for DNMT1 inhibitory activity: SAR discussion of Table 1
# Experimental: All the compounds were first screened using an ELISA EpiQuik DNA methyltransferase (DNMT) activity/inhibitor assay kit (Epigentek). To measure the effects of the compounds on human DNMT1 activity, 200 nM purified DNMT1 was incubated with 50 µM and 100 µM of the different compounds and S-adenosylmethionine in the DNMT assay buffer in the assay plate at 37 °C for 2 h[36]. Next, every sample was incubated with the capture and detection antibody, followed by incubation with developer solution for 10 min at room temperature. The absorbance was measured at 450 nm using a POLARstar Omega microplate reader (BMG). S-Adenosylhomocysteine (AdoHcy) was used as a positive control. Methylation inhibition assays for EZH2, LSD, and G9a were performed in modified Tris, pH 9.0, buffer using AlphaLisa technology. An amount of 10 µL of the reaction system contained a corresponding concentration of SAM (Sigma) (EZH2 50 µM, LSD 50 µM, and G9a 50 µM), which was the Km value in each enzymatic reaction, plus 100 nM biotinylated peptide H3 (1–21) (synthesis by GLChina) and the relevant enzyme concentration (0.03 nM EZH2, 0.03 nM LSD, and 0.03 nM G9a). The proteins were preincubated with various compound concentrations for 15 min at room temperature before the substrate and SAM were added. After 60 min of incubation at room temperature, acceptor and donor AlphaLisa beads were added according to the manufacturer’s recommendations. The signals were read in Alpha mode with an EnSpire multimode plate reader (PerkinElmer). IC50 values were derived by fitting the data for the inhibition percentage to a dose-response curve by non-linear regression in GraphPad Prism 5.0[20].
# DNMT1 inhibition test was performed on 30 candidates to verify their biochemical activities. The EpiQuik DNA methyl-transferase (DNMT) activity/inhibitor assay kit (Epigentek) was used to identify the activity of synthetic compounds.
# DNMT1 = DNMT1 (Homo sapiens, UniProt P26358); experiment: H3-labelled radioactive methylation assay; type: biochemical; details: H3-labeled radioactive methylation assay; 40 nM DNMT1
# Experimental: The DNMT1 radioactive methylation inhibition assays were performed in 30 µL reactions containing 0.1 µM adenosyl-L-methionine S-[methyl-^3H] (^3H-SAM, ^15 Ci/mmol, PerkinElmer), 0.25 µg/mL poly (dI-dC)·poly (dI-dC) (Sigma), 40 nM DNMT1 in 50 mM Tris-HCl, pH 8.0, 1 mM DTT, 5% glycerol, and 100 µg/mL BSA. The proteins were preincubated with a range of compound concentrations for 15 min at room temperature before adding the substrate and [^3H] SAM. After 60 min of incubation at 37 °C, the reaction systems were transferred to a MultiScreen HTS filter plate (Millipore), and the plate was washed 3 times with doubly distilled H2O via a vacuum. The radioactivity was determined by liquid scintillation counting (MicroBeta, PerkinElmer). IC50 values were derived by fitting the data for the inhibition percentage to a dose-response curve by non-linear regression in GraphPad Prism 5.0.
# To quantitatively analyse DNMT1 inhibitory effect, the H^3-labelled radioactive methylation assay was conducted to measure the methyltransferase activity of DNMT1 at a range of concentrations for these compounds.
# PK study in SD rats = type: in vivo; details: rat, plasma, SD male rats; for AUC(0-t) / Tmax / half-life: mean ± SD (n = 3)
# Experimental: In vivo pharmacokinetic properties of WK-22, WK-23, WK-27, and DC_517 were performed by Medicilon Company, Shanghai, China. SPF-grade SD male rats (8 groups, n = 3 rats per group) with a body weight of 230–260 g were purchased from Shanghai SIPPR-BK LAB Animal Ltd., Shanghai, China, and used for the pharmacokinetic analysis of the tested compounds. All animals were deprived of food overnight after the cannulation surgery. Subsequently, the tested compounds WK-23 and DC_517 were dissolved/suspended in 5% DMSO, 10% Solutol, and 85% water, and the tested compounds WK-22 and WK-27 were dissolved/suspended in 5% DMSO, 40% PEG400, and 55% saline for intravenous administration (i.v.) and oral administration (p.o.), respectively. A final dosage of 2.0 and 10.0 mg/kg rat of the formulated compounds was administered for i.v. and p.o. purposes, respectively, and the blood samples were taken at various time points during a 24 h period. At different time points, blood samples were collected from the femoral vein. The plasma samples were obtained after centrifugation (6800 g, 6 min, 2–8 °C) and stored at −80 °C until the assay. The AUC (area under concentration-time curve) was calculated through the trapezoidal rule with extrapolation to time infinity. The concentration of the compounds in the blood was analysed by LC-MS/MS (Shimadzu liquid chromatographic system and SCIEX Triple Quad 5500+ mass spectrometer, Applied Biosystems, Ontario, Canada). The Tmax, T1/2, and Cmax value was obtained through visual inspection of the plasma concentration-time curve. The Vss value was generated from DAS 3.2.8 software. The F value of WK-23 was calculated with the formula: F = (AUC p.o. × Dose i.v.)/(AUC i.v. × Dose p.o.) × 100%.
# DNMT1, sequence (P26358 whole entry): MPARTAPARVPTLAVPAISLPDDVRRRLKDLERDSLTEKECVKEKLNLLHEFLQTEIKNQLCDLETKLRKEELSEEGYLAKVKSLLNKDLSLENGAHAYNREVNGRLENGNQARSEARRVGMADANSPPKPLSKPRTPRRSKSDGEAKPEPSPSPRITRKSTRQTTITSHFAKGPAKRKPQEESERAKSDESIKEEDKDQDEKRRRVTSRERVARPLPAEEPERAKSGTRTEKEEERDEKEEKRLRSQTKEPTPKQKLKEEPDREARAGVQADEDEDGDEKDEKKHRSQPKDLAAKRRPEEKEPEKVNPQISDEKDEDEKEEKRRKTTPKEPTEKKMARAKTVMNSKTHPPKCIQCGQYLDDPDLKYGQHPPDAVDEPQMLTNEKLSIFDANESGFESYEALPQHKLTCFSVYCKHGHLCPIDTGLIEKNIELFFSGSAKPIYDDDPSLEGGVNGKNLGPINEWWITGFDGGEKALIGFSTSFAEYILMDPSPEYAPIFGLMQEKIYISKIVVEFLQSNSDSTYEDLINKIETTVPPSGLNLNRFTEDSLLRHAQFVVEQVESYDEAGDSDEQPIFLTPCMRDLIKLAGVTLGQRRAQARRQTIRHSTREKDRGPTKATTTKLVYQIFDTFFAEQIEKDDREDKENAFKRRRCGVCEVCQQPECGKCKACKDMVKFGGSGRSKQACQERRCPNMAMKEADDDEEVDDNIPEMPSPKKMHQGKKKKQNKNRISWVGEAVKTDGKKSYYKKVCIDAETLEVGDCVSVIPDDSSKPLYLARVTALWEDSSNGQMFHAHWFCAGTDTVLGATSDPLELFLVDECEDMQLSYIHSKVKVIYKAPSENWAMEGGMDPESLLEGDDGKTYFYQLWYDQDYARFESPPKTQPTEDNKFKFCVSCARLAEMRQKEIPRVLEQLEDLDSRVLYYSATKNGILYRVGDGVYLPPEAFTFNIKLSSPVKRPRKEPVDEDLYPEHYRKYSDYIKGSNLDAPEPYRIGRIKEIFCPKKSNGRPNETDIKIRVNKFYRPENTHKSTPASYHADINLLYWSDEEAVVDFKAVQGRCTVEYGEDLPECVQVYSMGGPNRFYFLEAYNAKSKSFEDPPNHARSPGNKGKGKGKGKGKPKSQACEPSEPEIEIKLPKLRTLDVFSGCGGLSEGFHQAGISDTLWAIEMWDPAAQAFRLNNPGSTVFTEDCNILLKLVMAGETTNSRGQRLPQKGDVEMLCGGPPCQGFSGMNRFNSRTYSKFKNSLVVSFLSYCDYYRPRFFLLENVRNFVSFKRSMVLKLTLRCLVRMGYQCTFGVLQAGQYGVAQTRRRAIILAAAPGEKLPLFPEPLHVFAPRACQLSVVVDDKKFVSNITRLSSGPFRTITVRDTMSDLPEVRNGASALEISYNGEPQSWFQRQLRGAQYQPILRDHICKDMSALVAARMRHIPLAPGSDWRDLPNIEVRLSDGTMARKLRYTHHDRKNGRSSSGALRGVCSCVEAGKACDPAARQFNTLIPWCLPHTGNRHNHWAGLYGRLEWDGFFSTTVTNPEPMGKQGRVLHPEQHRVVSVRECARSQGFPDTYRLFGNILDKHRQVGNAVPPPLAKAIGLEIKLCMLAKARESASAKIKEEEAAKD
Inh% at 50 μM (human DNMT1) [%],Inh% at 100 μM (human DNMT1) [%],melting point [°C],Compound,also measured
43,88,,"OC(CNCCc1c[nH]c2ccccc12)Cn1c2ccccc2c2ccccc21 (centres unmarked) [DC_05, reference compound]",IC50 (DNMT1): 52 µM
55,66,109 to 111,"OC(CNCCc1ccc(F)cc1)Cn1c2ccccc2c2cc(F)ccc21 (centres unmarked) [WK-2, 1-(3-Fluoro-9H-carbazol-9-yl)-3-((4-fluorophenethyl)amino)propan-2-ol]",
71,79,140 to 142,"Oc1ccc(CCNCC(O)Cn2c3ccccc3c3cc(F)ccc32)cc1 (centres unmarked) [WK-3, 4-(2-((3-(3-Fluoro-9H-carbazol-9-yl)-2-hydroxypropyl)amino)ethyl)phenol]",IC50 (DNMT1): 27 µM
56,60,55 to 57,"COc1ccccc1OCCNCC(O)Cn1c2ccccc2c2cc(F)ccc21 (centres unmarked) [WK-4, 1-(3-fluoro-9H-carbazol-9-yl)-3-((2-(2-methoxyphenoxy)ethyl)amino) propan-2-ol]",
68,79,118 to 120,"CC(O)CNCC(O)Cn1c2ccccc2c2cc(F)ccc21 (centres unmarked) [WK-6, 1-(3-Fluoro-9H-carbazol-9-yl)-3-((2-hydroxypropyl)amino)propan-2-ol]",
67,83,119 to 121,"CC(CO)NCC(O)Cn1c2ccccc2c2cc(F)ccc21 (centres unmarked) [WK-7, 2-((3-(3-Fluoro-9H-carbazol-9-yl)-2-hydroxypropyl)amino)propan-1-ol]",IC50 (DNMT1): 9.6 µM
16,58,100 to 102,"C[C@@H](CNCC(O)Cn1c2ccccc2c2cc(F)ccc21)c1ccccc1 (stereo partly drawn) [WK-8, 1-(3-Fluoro-9H-carbazol-9-yl)-3-(((R)-2-phenylpropyl)amino)propan-2-ol]",
25,53,130 to 132,"OC(CNCc1ccc(F)cc1)Cn1c2ccccc2c2cc(F)ccc21 (centres unmarked) [WK-9, 1-(3-Fluoro-9H-carbazol-9-yl)-3-((4-fluorobenzyl)amino)propan-2-ol]",
27,46,93 to 95,"COc1ccccc1OCCNCC(O)Cn1c2ccc(F)cc2c2cc(F)ccc21 (centres unmarked) [WK-16, 1-(3,6-Difluoro-9H-carbazol-9-yl)-3-((2-(2-methoxyphenoxy)ethyl)amino) propan-2-ol]",
68,77,85 to 87,"OC(CNCCc1c[nH]c2ccccc12)Cn1c2ccccc2c2ccncc21 (centres unmarked) [WK-20, 1-((2-(1H-indol-3-yl)ethyl)amino)-3-(9H-pyrido[3,4-b]indol-9-yl)propan-2-ol]",
39,34,107 to 109,"OC(CNCCc1c[nH]c2ccccc12)Cn1c2ccccc2c2cccnc21 (centres unmarked) [WK-21, 1-((2-(1H-indol-3-yl)ethyl)amino)-3-(9H-pyrido[2,3-b]indol-9-yl)propan-2-ol]",

# The next lines start with the compound.
Compound,Inh% at 50 μM (human DNMT1) [%],Inh% at 100 μM (human DNMT1) [%],melting point [°C],also measured
"OC(CNCCc1c[nH]c2ccccc12)COC(Cn1c2ccccc2c2ccccc21)Cn1c2ccccc2c2ccccc21 (centres unmarked) [DC_517, reference compound]",96,98,,"IC50 (DNMT1): 2.3 µM; AUC(0-t) (PK study in SD rats; iv, i.v. (2 mg/kg)): 1020 ± 60.9 ng·h/mL; Tmax (PK study in SD rats; iv, i.v. (2 mg/kg)): 0.08 h; half-life (PK study in SD rats; iv, i.v. (2 mg/kg)): 402 ± 12 min; bioavailability (PK study in SD rats; po, p.o. 10 mg/kg vs i.v. 2 mg/kg, F = (AUC p.o. × Dose i.v.)/(AUC i.v. × Dose p.o.) × 100%): 38.7 ± 2.9%; AUC(0-t) (PK study in SD rats; po, p.o. (10 mg/kg)): 2080 ± 113 ng·h/mL; Tmax (PK study in SD rats; po, p.o. (10 mg/kg)): 6 h; half-life (PK study in SD rats; po, p.o. (10 mg/kg)): 402 ± 54 min"
"CCCCOCCCNCC(O)Cn1c2ccccc2c2cc(F)ccc21 (centres unmarked) [WK-5, 1-((3-Butoxypropyl)amino)-3-(3-fluoro-9H-carbazol-9-yl)propan-2-ol]",59,65,71 to 73,
"CC(C)(C)OC(=O)N1CCN(CC(O)Cn2c3ccccc3c3cc(F)ccc32)C[C@H]1CO (stereo partly drawn) [WK-10, (2S)-tert-butyl 4-(3-(3-fluoro-9H-carbazol-9-yl)-2-hydroxypropyl)-2-(hydroxymethyl)piperazine-1-carboxylate]",5.1,−9.0,71 to 73,
"OC[C@@H]1CN(CC(O)Cn2c3ccccc3c3cc(F)ccc32)CCN1 (stereo partly drawn) [WK-11, 1-(3-Fluoro-9H-carbazol-9-yl)-3-((S)-3-(hydroxymethyl)piperazin-1-yl)propan-2-ol]",41,50,35 to 37,
"CCCCOCCCNCC(O)Cn1c2ccc(F)cc2c2cc(F)ccc21 (centres unmarked) [WK-17, 1-((3-butoxypropyl)amino)-3-(3,6-difluoro-9H-carbazol-9-yl)propan-2-ol]",73,79,94 to 96,
"OC(CNC1CC1)COC(Cn1c2ccccc2c2cc(F)ccc21)Cn1c2ccccc2c2cc(F)ccc21 (centres unmarked) [WK-24, 1-((1,3-Bis(3-fluoro-9H-carbazol-9-yl)propan-2-yl)oxy)-3-(cyclopropylamino)propan-2-ol]",2.3,2.6,57 to 59,DNMT1 inhibitory activity (human DNMT1): inactive
"CC(C)(C)OC(=O)N1CCN(CC(O)COC(Cn2c3ccccc3c3cc(F)ccc32)Cn2c3ccc(F)cc3c3cc(F)ccc32)C[C@@H]1CO (stereo partly drawn) [WK-26, (2R)-tert-butyl 4-(3-((1-(3,6-difluoro-9H-carbazol-9-yl)-3-(3-fluoro-9H-carbazol-9-yl)propan-2-yl)oxy)-2-hydroxypropyl)-2-(hydroxymethyl)piperazine-1-carboxylate]",8.7,−16,74 to 76,DNMT1 inhibitory activity (human DNMT1): lost its activity
"OC(CNCCc1c[nH]c2ccccc12)COC(Cn1c2ccccc2c2cc(F)ccc21)Cn1c2ccc(F)cc2c2cc(F)ccc21 (centres unmarked) [WK-28, 1-((2-(1H-indol-3-yl)ethyl)amino)-3-((1-(3,6-difluoro-9H-carbazol-9-yl)-3-(3-fluoro-9H-carbazol-9-yl)propan-2-yl)oxy)propan-2-ol]",91,91,113 to 115,
"CCCCOCCCNCC(O)COC(Cn1c2ccccc2c2cc(F)ccc21)Cn1c2ccc(F)cc2c2cc(F)ccc21 (centres unmarked) [WK-29, 1-((3-Butoxypropyl)amino)-3-((1-(3,6-difluoro-9H-carbazol-9-yl)-3-(3-fluoro-9H-carbazol-9-yl)propan-2-yl)oxy)propan-2-ol]",85,80,151 to 153,
